From patent publication US20050095240A1, “NaCT as a target for lifespan expansion and weight reduction” (Medical College of Georgia Research, priority 2002, published 2005)

Assays:
human NaCT = human NaCT (Homo sapiens, UniProt Q86YT5); test: Uptake via human NaCT expressed in HRPE cells; assay type: cell-based
NaCT in HepG2 cells = target: T1, NaCT in HepG2 cells (Homo sapiens, UniProt Q86YT5); test: Citrate uptake in HepG2 cells (constitutively expressed NaCT); assay type: cell-based; conditions: Li+ 2 mM, valproate 0.6 μM, carbamazepine 50 μM
T1 construct: the effect of Li^+ on constitutively expressed NaCT in human liver cells was studied; host or cells: HepG2
Protocol: (§1) Uptake measurement in human liver cell lines. The human liver cell lines (HepG2 and Huh-7) were cultured to confluency in 24-well culture plates using appropriate culture medium. The HepG2 cell line was obtained from American Type Culture Collection (Manasses, Va.). The Huh-7 cell line (Bode et al., (2002) Am. J. Physiol. 283, G1062-G1073) was provided by Dr. Barrie P. Bode (St. Louis University, St. Louis, Mo.). Uptake measurements in monolayer cultures of these cells were measured as described above for the heterologously expressed NaCTs.

[1] = target: chimeric transporter (human NaCT 496-516 replaced with rat NaCT 500-520) (Homo sapiens, UniProt Q86YT5, F500L/T516A); test: Citrate uptake via human/rat chimeric NaCT in HRPE cells; assay type: cell-based; conditions: Li+ 10 mM; citrate 20 μM
rat NaCT = target: T2, rat NaCT (Rattus norvegicus, UniProt Q8CJ44); test: Uptake via rat NaCT expressed in HRPE cells; assay type: cell-based
T2 sequence (Q8CJ44 1-572): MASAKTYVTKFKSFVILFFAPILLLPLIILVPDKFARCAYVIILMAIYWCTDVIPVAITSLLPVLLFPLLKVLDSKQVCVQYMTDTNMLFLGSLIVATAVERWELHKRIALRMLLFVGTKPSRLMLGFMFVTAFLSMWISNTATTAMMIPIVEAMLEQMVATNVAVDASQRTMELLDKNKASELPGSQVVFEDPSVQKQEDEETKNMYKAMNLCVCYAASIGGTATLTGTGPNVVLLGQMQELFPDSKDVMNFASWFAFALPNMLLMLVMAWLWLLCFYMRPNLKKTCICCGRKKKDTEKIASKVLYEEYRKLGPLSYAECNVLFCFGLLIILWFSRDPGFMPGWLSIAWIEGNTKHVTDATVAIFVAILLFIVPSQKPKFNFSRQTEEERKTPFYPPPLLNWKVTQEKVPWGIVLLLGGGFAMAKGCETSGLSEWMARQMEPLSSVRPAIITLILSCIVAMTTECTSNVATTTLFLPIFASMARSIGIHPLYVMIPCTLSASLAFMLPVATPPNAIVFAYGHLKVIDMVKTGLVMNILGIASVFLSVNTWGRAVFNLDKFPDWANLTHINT

NaCT in Huh-7 cells = target: T3, NaCT in Huh-7 cells (Homo sapiens, UniProt Q86YT5); test: Citrate uptake in Huh-7 cells (constitutively expressed NaCT); assay type: cell-based; conditions: Li+ 2 mM
T3 construct: the effect of Li^+ on constitutively expressed NaCT in human liver cells was studied; endogenous in cells; host or cells: Huh-7 (gift of Dr. Barrie P. Bode)
Protocol: as §1

ceNaCT = target: T4, ceNaCT (Caenorhabditis elegans, UniProt P32739, I91S/L182M); test: Uptake via ceNaCT expressed in HRPE cells; conditions: Li+ 2 mM, valproate 0.6 μM, carbamazepine 50 μM
T4 sequence (P32739 1-551 I91S/L182M): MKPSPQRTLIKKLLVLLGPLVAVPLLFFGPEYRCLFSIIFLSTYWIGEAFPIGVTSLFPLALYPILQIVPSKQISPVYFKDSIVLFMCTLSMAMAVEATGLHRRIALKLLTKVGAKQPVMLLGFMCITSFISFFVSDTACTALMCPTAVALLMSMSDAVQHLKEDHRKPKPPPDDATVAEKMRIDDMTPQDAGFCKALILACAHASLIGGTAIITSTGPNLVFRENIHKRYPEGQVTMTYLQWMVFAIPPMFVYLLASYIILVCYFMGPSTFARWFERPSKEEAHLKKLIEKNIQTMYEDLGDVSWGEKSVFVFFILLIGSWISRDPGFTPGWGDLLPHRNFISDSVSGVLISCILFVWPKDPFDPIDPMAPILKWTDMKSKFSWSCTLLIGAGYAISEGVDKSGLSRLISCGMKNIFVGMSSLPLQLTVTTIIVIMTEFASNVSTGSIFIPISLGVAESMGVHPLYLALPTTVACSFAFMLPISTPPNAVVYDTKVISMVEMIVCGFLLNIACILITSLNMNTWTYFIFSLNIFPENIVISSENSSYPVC

HepG2 cells = test: Incorporation of citrate and acetate into cellular lipids; assay type: cell-based, human; conditions: 24 hours
Description: The cellular lipids were then extracted by n-hexane/isopropanol (3:2, v/v) as described by Schamagl et al. (Scharnagl et al., (2001) Biochem. Pharmacol. 62, 1545-1555).

mouse NaCT = target: T5, mouse NaCT (Mus musculus, UniProt Q67BT3); test: Transport via mouse NaCT expressed in HRPE cells; assay type: cell-based; conditions: Li+ 2 mM, valproate 0.6 μM, carbamazepine 50 μM
T5 sequence (Q67BT3 1-572): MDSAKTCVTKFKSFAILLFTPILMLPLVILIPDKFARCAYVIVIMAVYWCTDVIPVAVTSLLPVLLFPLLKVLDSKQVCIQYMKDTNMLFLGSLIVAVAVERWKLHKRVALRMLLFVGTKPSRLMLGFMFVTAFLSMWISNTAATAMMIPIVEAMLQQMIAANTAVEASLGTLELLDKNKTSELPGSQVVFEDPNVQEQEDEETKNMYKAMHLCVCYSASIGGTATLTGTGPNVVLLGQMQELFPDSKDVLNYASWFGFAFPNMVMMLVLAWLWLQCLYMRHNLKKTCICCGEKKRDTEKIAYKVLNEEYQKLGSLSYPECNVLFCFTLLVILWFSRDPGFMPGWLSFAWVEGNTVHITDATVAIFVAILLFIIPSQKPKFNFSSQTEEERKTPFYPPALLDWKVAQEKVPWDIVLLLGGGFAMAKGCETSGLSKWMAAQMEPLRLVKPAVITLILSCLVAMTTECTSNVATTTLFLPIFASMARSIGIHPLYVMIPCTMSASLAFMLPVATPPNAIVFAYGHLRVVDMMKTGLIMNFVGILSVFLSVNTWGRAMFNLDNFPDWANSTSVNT

[2] = target: Phe→Leu mutant of human NaCT (Homo sapiens, UniProt Q86YT5, F500L); test: Citrate uptake via Phe→Leu mutant of human NaCT in HRPE cells; assay type: cell-based; conditions: citrate 20 μM; increasing Li+
[3] = patients under treatment; cited from earlier work
zebrafish NaCT = zebrafish NaCT (Danio rerio, UniProt A0A2R8QQN0, K78Q); test: Citrate uptake via zebrafish NaCT expressed in HRPE cells; assay type: cell-based
[4] = Li+ 2 mM, valproate 0.6 μM, carbamazepine 50 μM

Chain of human NaCT (Q86YT5 whole entry): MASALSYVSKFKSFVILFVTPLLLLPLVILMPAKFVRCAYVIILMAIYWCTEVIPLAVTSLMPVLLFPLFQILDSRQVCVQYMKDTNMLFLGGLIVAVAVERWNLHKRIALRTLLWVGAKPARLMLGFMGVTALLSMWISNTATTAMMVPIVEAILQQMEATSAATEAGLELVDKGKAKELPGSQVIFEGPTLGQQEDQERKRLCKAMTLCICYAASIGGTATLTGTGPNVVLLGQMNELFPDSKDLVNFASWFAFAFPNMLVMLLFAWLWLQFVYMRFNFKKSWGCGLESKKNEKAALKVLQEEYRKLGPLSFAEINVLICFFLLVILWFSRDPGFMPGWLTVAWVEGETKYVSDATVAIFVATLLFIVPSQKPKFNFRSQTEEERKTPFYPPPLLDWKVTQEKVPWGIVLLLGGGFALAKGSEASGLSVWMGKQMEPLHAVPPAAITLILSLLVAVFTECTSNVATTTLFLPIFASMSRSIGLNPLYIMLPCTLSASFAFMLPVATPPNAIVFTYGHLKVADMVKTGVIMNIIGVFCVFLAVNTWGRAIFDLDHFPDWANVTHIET
T1 sequence (Q86YT5 whole entry): as above
T3 sequence (Q86YT5 whole entry): as above
Chain of zebrafish NaCT (A0A2R8QQN0 2-582 K78Q): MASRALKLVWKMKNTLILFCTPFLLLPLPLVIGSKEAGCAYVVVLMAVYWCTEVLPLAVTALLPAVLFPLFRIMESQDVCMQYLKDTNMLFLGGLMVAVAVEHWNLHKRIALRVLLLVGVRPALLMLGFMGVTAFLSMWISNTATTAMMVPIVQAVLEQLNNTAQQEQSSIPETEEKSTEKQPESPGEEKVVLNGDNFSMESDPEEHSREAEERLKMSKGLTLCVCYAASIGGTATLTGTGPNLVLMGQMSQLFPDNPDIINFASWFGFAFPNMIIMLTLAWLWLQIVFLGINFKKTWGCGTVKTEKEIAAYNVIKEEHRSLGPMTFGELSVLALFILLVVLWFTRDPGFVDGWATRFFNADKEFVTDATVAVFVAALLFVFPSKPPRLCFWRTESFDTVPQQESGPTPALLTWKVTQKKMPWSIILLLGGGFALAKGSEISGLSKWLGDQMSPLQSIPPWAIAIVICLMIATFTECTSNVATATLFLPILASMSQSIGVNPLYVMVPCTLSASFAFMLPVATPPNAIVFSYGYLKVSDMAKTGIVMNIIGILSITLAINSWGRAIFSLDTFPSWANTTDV
Chain of Phe→Leu mutant of human NaCT (Q86YT5 whole entry F500L): as the sequence (Q86YT5 whole entry) above, with F500L counted along it
Chain of chimeric transporter (human NaCT 496-516 replaced with rat NaCT 500-520) (Q86YT5 whole entry F500L/T516A): as the sequence (Q86YT5 whole entry) above, with F500L, T516A counted along it

With `[Li+]` [Li^+, lithium] the “Increase of affinity for citrate” value (human NaCT; 10 mM Li+) was “approximately 7 fold”, the “Stimulation of human NaCT by Li+” value (human NaCT; 10 mM Li+, 60 mM Na+) was 7 fold and the “Stimulation of human NaCT by Li+” value (human NaCT; 10 mM Li+, 140 mM Na+) was 3 fold. The “Citrate uptake, hNaCT” value (human NaCT; [4]) was 105.2 ± 11.6 pmol/10^6 cells/min, the “Citrate uptake, hNaCT, percent of corresponding control” value (human NaCT; [4]) was 203% and the “Stimulation of human NaCT activity” value (human NaCT; Li+ 2.5 mM) was 2.4 fold. The EC50 (human NaCT; read-out: Concentration of Li+ needed for half-maximal stimulation of citrate uptake, citrate 20 μM) was 2100 ± 700 µM, the “Citrate uptake, HepG2 cells” value (NaCT in HepG2 cells) was 21.2 ± 0.6 pmol/min/mg protein and the “Citrate uptake, HepG2 cells, percent of corresponding control” value (NaCT in HepG2 cells) was 222%. For the same compound, the “Effect of Li+ on activity of the chimeric transporter” value [1] was “not affected”, the “Citrate uptake, rNaCT” value (rat NaCT; [4]) was 92.3 ± 8.4 pmol/10^6 cells/min and the “Citrate uptake, rNaCT, percent of corresponding control” value (rat NaCT; [4]) was 62%. For the same compound, the IC50 (rat NaCT; read-out: IC50 for inhibition of citrate uptake via rat NaCT, citrate 20 μM) was 2100 ± 800 µM, the “Citrate uptake, Huh-7 cells” value (NaCT in Huh-7 cells) was 20.0 ± 0.5 pmol/min/mg protein and the “Citrate uptake, Huh-7 cells, percent of corresponding control” value (NaCT in Huh-7 cells) was 196%. For the same compound, the “Citrate uptake, ceNaCT” value (ceNaCT) was 43.6 ± 0.8 pmol/10^6 cells/min, the “Citrate uptake, ceNaCT, percent of corresponding control” value (ceNaCT) was 100% and the “Stimulation of incorporation of [^14C]citrate into lipid fraction” value (HepG2 cells; Li+ 2 mM) was 2.6±0.1 fold. For the same compound, the “Effect on incorporation of [^14C]acetate into lipids” value (HepG2 cells; Li+ 2 or 10 mM) was “did not have any effect”, the “Citrate uptake, mNaCT” value (mouse NaCT) was 29.4 ± 1.7 pmol/10^6 cells/min and the “Citrate uptake, mNaCT, percent of corresponding control” value (mouse NaCT) was 69%. The “Effect of Li+ on transport function of the mutant” value [2] was “not affected”, the “Plasma concentrations / therapeutic plasma levels in humans” value [3] was 800 to 2000 µM and the “Citrate uptake, zfNaCT” value (zebrafish NaCT) was 298.0 ± 12.6 (61) pmol/10^6 cells/min. The “Citrate uptake, zfNaCT, percent of corresponding control” value (zebrafish NaCT) was 298.0 ± 12.6 (61) percent.
